PubChem BioAssay (NCI)
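All cell lines were grown in 96-well plates and treated with compound for 48 hours. TGI denotes the concentration required for complete inhibition of growth.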

Legend:
Experiment in all cases: NCI anticancer screen, dose series, 48 h
MCF7 breast = tested on: MCF7 breast
SK-OV-3 ovarian = tested on: SK-OV-3 ovarian
NCI/ADR-RES ovarian = tested on: NCI/ADR-RES ovarian
SF-268 CNS = tested on: SF-268 CNS
RXF 393 renal = tested on: RXF 393 renal
HS 578T breast = tested on: HS 578T breast
MOLT-4 leukemia = tested on: MOLT-4 leukemia
NCI-H23 lung = tested on: NCI-H23 lung
SF-539 CNS = tested on: SF-539 CNS
COLO 205 colon = tested on: COLO 205 colon
MDA-N = tested on: MDA-N
ACHN renal = tested on: ACHN renal
MDA-MB-435 = tested on: MDA-MB-435
A498 renal = tested on: A498 renal
BT-549 breast = tested on: BT-549 breast
UACC-257 melanoma = tested on: UACC-257 melanoma
NCI-H460 lung = tested on: NCI-H460 lung
OVCAR-3 ovarian = tested on: OVCAR-3 ovarian
HCT-15 colon = tested on: HCT-15 colon
PC-3 prostate = tested on: PC-3 prostate
UO-31 renal = tested on: UO-31 renal
IGROV1 ovarian = tested on: IGROV1 ovarian
SK-MEL-28 melanoma = tested on: SK-MEL-28 melanoma
KM12 colon = tested on: KM12 colon
T-47D breast = tested on: T-47D breast
SK-MEL-5 melanoma = tested on: SK-MEL-5 melanoma
786-0 renal = tested on: 786-0 renal
SK-MEL-2 melanoma = tested on: SK-MEL-2 melanoma
NCI-H522 lung = tested on: NCI-H522 lung
LOX IMVI melanoma = tested on: LOX IMVI melanoma
OVCAR-5 ovarian = tested on: OVCAR-5 ovarian
SNB-75 CNS = tested on: SNB-75 CNS
HOP-92 NSCLC = tested on: HOP-92 NSCLC
A549 NSCLC = tested on: A549 NSCLC
DU-145 prostate = tested on: DU-145 prostate
HT29 colon = tested on: HT29 colon
CAKI-1 renal = tested on: CAKI-1 renal
SF-295 CNS = tested on: SF-295 CNS
OVCAR-8 ovarian = tested on: OVCAR-8 ovarian
K-562 leukemia = tested on: K-562 leukemia
RPMI-8226 leukemia = tested on: RPMI-8226 leukemia
HOP-62 NSCLC = tested on: HOP-62 NSCLC
U251 CNS = tested on: U251 CNS
SR leukemia = tested on: SR leukemia
HL-60(TB) leukemia = tested on: HL-60(TB) leukemia
HCT-116 colon = tested on: HCT-116 colon
OVCAR-4 ovarian = tested on: OVCAR-4 ovarian
NCI-H226 lung = tested on: NCI-H226 lung
M14 melanoma = tested on: M14 melanoma
HCC-2998 colon = tested on: HCC-2998 colon
MALME-3M melanoma = tested on: MALME-3M melanoma
SNB-19 CNS = tested on: SNB-19 CNS
SW-620 colon = tested on: SW-620 colon
TK-10 renal = tested on: TK-10 renal
CCRF-CEM leukemia = tested on: CCRF-CEM leukemia
SN12C renal = tested on: SN12C renal
MDA-MB-231 breast = tested on: MDA-MB-231 breast
UACC-62 melanoma = tested on: UACC-62 melanoma
EKVX NSCLC = tested on: EKVX NSCLC

NC(=O)c1ccc(NCC2=CC(=O)C=CC2=O)cc1
TGI (MCF7 breast): 59.1 µM | TGI (SK-OV-3 ovarian): > 100 µM | TGI (NCI/ADR-RES ovarian): 71.4 µM | TGI (SF-268 CNS): 50.9 µM | TGI (RXF 393 renal): 41 µM | TGI (HS 578T breast): 75.2 µM | TGI (MOLT-4 leukemia): 67.9 µM | TGI (NCI-H23 lung): 51.7 µM | TGI (SF-539 CNS): 32.9 µM | TGI (COLO 205 colon): 36.2 µM | TGI (MDA-N): 31.8 µM | TGI (ACHN renal): 31.6 µM | TGI (MDA-MB-435): 32.1 µM | TGI (A498 renal): > 100 µM | TGI (BT-549 breast): 36.2 µM | TGI (UACC-257 melanoma): 43.1 µM | TGI (NCI-H460 lung): > 100 µM | TGI (OVCAR-3 ovarian): 31 µM | TGI (HCT-15 colon): 38.3 µM | TGI (PC-3 prostate): 32.7 µM | TGI (UO-31 renal): 31.8 µM | TGI (IGROV1 ovarian): 44.7 µM | TGI (SK-MEL-28 melanoma): 36.9 µM | TGI (KM12 colon): > 100 µM | TGI (T-47D breast): 68.9 µM | TGI (SK-MEL-5 melanoma): 30.2 µM | TGI (786-0 renal): 38.5 µM | TGI (SK-MEL-2 melanoma): 39.8 µM | TGI (NCI-H522 lung): 47.5 µM | TGI (LOX IMVI melanoma): 32.5 µM | TGI (OVCAR-5 ovarian): 52.9 µM | TGI (SNB-75 CNS): 36.2 µM | TGI (HOP-92 NSCLC): 40.7 µM | TGI (A549 NSCLC): > 100 µM | TGI (DU-145 prostate): > 100 µM | TGI (HT29 colon): 47.7 µM | TGI (CAKI-1 renal): 34.2 µM | TGI (SF-295 CNS): > 100 µM | TGI (OVCAR-8 ovarian): 50.7 µM | TGI (K-562 leukemia): 49.1 µM | TGI (RPMI-8226 leukemia): 54.6 µM | TGI (HOP-62 NSCLC): > 100 µM | TGI (U251 CNS): 45.1 µM | TGI (SR leukemia): 56.4 µM | TGI (HL-60(TB) leukemia): 30.3 µM | TGI (HCT-116 colon): 36.1 µM | TGI (OVCAR-4 ovarian): 42.4 µM | TGI (NCI-H226 lung): > 100 µM | TGI (M14 melanoma): 31.3 µM | TGI (HCC-2998 colon): > 100 µM | TGI (MALME-3M melanoma): 36.6 µM | TGI (SNB-19 CNS): > 100 µM | TGI (SW-620 colon): 44 µM | TGI (TK-10 renal): 32.7 µM | TGI (CCRF-CEM leukemia): 50.8 µM | TGI (SN12C renal): 41.3 µM | TGI (MDA-MB-231 breast): 37.5 µM | TGI (UACC-62 melanoma): 35.6 µM | TGI (EKVX NSCLC): 34.3 µM

COc1c(O)ccc(C2=Cc3ccc(O)cc3OC2)c1OC
TGI (MCF7 breast): > 100 µM | TGI (SK-OV-3 ovarian): > 80.8 µM | TGI (NCI/ADR-RES ovarian): > 67.9 µM | TGI (SF-268 CNS): > 100 µM | TGI (RXF 393 renal): > 63.5 µM | TGI (HS 578T breast): > 95.3 µM | TGI (MOLT-4 leukemia): 37 µM | TGI (NCI-H23 lung): > 58.3 µM | TGI (SF-539 CNS): 35.3 µM | TGI (COLO 205 colon): > 74 µM | TGI (MDA-N): 33.5 µM | TGI (ACHN renal): > 63.4 µM | TGI (MDA-MB-435): > 92.2 µM | TGI (A498 renal): 80.8 µM | TGI (BT-549 breast): > 82.4 µM | TGI (UACC-257 melanoma): > 89.7 µM | TGI (NCI-H460 lung): > 100 µM | TGI (OVCAR-3 ovarian): 34 µM | TGI (HCT-15 colon): 37.3 µM | TGI (PC-3 prostate): 84.4 µM | TGI (UO-31 renal): 28.4 µM | TGI (IGROV1 ovarian): > 100 µM | TGI (SK-MEL-28 melanoma): > 94 µM | TGI (KM12 colon): 33.4 µM | TGI (T-47D breast): > 82.3 µM | TGI (SK-MEL-5 melanoma): 38.5 µM | TGI (786-0 renal): > 63.5 µM | TGI (SK-MEL-2 melanoma): 68 µM | TGI (NCI-H522 lung): 16.1 µM | TGI (LOX IMVI melanoma): > 100 µM | TGI (OVCAR-5 ovarian): 97.7 µM | TGI (SNB-75 CNS): > 58.3 µM | TGI (HOP-92 NSCLC): > 74 µM | TGI (A549 NSCLC): > 78.9 µM | TGI (DU-145 prostate): > 79.6 µM | TGI (HT29 colon): > 89.5 µM | TGI (CAKI-1 renal): 50 µM | TGI (SF-295 CNS): > 83.6 µM | TGI (OVCAR-8 ovarian): > 62.5 µM | TGI (K-562 leukemia): 45.8 µM | TGI (RPMI-8226 leukemia): > 26.8 µM | TGI (HOP-62 NSCLC): 62.4 µM | TGI (U251 CNS): > 100 µM | TGI (SR leukemia): 17.1 µM | TGI (HL-60(TB) leukemia): 10.7 µM | TGI (HCT-116 colon): > 61.7 µM | TGI (OVCAR-4 ovarian): > 81.1 µM | TGI (NCI-H226 lung): > 65.4 µM | TGI (M14 melanoma): 66.8 µM | TGI (HCC-2998 colon): 47.1 µM | TGI (MALME-3M melanoma): 65.7 µM | TGI (SNB-19 CNS): > 100 µM | TGI (SW-620 colon): > 100 µM | TGI (TK-10 renal): > 100 µM | TGI (CCRF-CEM leukemia): > 96.7 µM | TGI (SN12C renal): > 96.5 µM | TGI (MDA-MB-231 breast): > 80.7 µM | TGI (UACC-62 melanoma): > 50.7 µM | TGI (EKVX NSCLC): > 100 µM
